Patent US20230255975A1, “METHODS FOR TREATING CANCER WITH COMBINATION THERAPIES” (Celgene Corporation, priority 2020, published 2023)
Where two headings read alike, the source gives them in different places.

Key:
AMO1 cell line = assay: Proliferation assay; assay type: cell-based; conditions: AMO1; for IC50: Homo sapiens, read-out: IC50 concentration, proliferation
Experimental: (§1) Proliferation and viability assays: Cell growth curves were determined by monitoring the viability of cells with Trypan blue exclusion on a Vi-Cell-XR (Becton Dickinson, Franklin Lakes, N.J., USA). Proliferation assays were performed in triplicate at least three times (n=3) using (3H)-thymidine incorporation. All data were plotted and analyzed using GraphPad Prism 7 (GraphPad Software, La Jolla, Calif., USA) software, represented as the mean with an error determined as ±s.d.
as §1, with “assay.” for “assays:”, “Cell lines” for “Proliferation assays”, “plated” for “performed”, “in 96-well round-bottom plates with the indicated drug concentrations or knockdown cells. […]” for “at least three times (n=3) using (3H)-thymidine incorporation.”

K12PE-PR cell line = assay: Proliferation assay; assay type: cell-based; conditions: for IC50: K12PE-PR, isogenic sensitive/resistant comparison, read-out: IC50 concentration, proliferation
Experimental: as §1
as §1, with “assay.” for “assays:”, “Cell lines” for “Proliferation assays”, “plated” for “performed”, “in 96-well round-bottom plates with the indicated drug concentrations or knockdown cells. […]” for “at least three times (n=3) using (3H)-thymidine incorporation.”

K12PE cell line = assay: Proliferation assay; assay type: cell-based; conditions: for IC50: K12PE, read-out: IC50 concentration, proliferation
Experimental: as §1
as §1, with “assay.” for “assays:”, “Cell lines” for “Proliferation assays”, “plated” for “performed”, “in 96-well round-bottom plates with the indicated drug concentrations or knockdown cells. […]” for “at least three times (n=3) using (3H)-thymidine incorporation.”

[1] = tested on: AMO1-PR (pomalidomide resistant) cell line; assay: Proliferation assay; assay type: cell-based; conditions: for IC50: isogenic sensitive/resistant comparison, read-out: IC50 concentration, proliferation
Experimental: as §1
as §1, with “assay.” for “assays:”, “Cell lines” for “Proliferation assays”, “plated” for “performed”, “in 96-well round-bottom plates with the indicated drug concentrations or knockdown cells. […]” for “at least three times (n=3) using (3H)-thymidine incorporation.”

H929-PR cell line = assay: Proliferation assay; assay type: cell-based; conditions: isogenic sensitive/resistant comparison, read-out: IC50 concentration, proliferation
Experimental: (§2) Proliferation and viability assay. Cell growth curves were determined by monitoring the viability of cells with Trypan blue exclusion on a Vi-Cell-XR (Becton Dickinson, Franklin Lakes, N.J., USA). Cell lines were plated in triplicate in 96-well round-bottom plates with the indicated drug concentrations or knockdown cells. Proliferation assays were performed in triplicate at least three times (n=3) using either the WST-1 tetrazolium salt (Roche Applied Science) reagent used according to the manufacturer's specifications or by (3H)-thymidine incorporation as previously described (Bjorklund et al., Blood Cancer Journal 5, e354, 2015). All data were plotted and analyzed using GraphPad Prism 7 (GraphPad Software, La Jolla, Calif., USA) software, represented as the mean with an error determined as ±s.d.

H929 cell line = assay: Proliferation assay; assay type: cell-based; conditions: Homo sapiens, read-out: IC50 concentration, proliferation
Experimental: as §1, §2

[2] = tested on: other kinases, including Cdk1 and Aurora B; conditions: selective inhibitors of NEK2; Henise 2011, Innocenti 2012; cited from earlier work
Control shRNA cell lines = assay: Biparametric Annexin V and Propidium Iodide assay; assay type: cell-based
Experimental: (§3) Biparametric assay for detection of cell cycle and apoptosis. Cell viability assay with Annexin V-FITC and propidium iodide was performed according to the published protocol cycle (Rieger et al., J Vis Exp. 2011, (50):2597; Léonce et al., Mol Pharmacol. 2001, 60(6):1383-1391).
(§4) Pomalidomide treatment combined with NEK2 inhibition increases apoptosis. Biparametric Annexin V and Propidium Iodide (PI) assay was performed to analyze cell cycle and apoptosis in the same sample and to quantify the proportion of cells undergoing apoptosis at each phase of cell cycle (Rieger et al., J Vis Exp. 2011, (50):2597; Léonce et al., Mol Pharmacol. 2001, 60(6):1383-1391). Control shRNA and NEK2 shRNA cell lines were treated with pomalidomide and followed cell cycle and apoptosis for the duration of two cell cycles. At 72 hours about 5.04% cells in the control shRNA lines were apoptotic compared to 21.1% apoptotic cells in NEK2 shRNA cell lines. […] At 96 hours about 9.5% of the cells in control shRNA lines and 24.7% of the NEK2 shRNA cell lines were apoptotic, and a majority of apoptotic cells were again contributed from G1-S phase of cell cycle. […] Combination of these two agents results in apoptosis of 20-25% cells in each cycle, with majority of apoptotic cells contributed from G1/S phase of cell cycle.

NEK2 shRNA cell lines = assay: Biparametric Annexin V and Propidium Iodide assay; assay type: cell-based
Experimental: as §3, §4

[3] = tested on: PLK1 transcript in MM1.S cells; assay: PLK1 transcript levels (qPCR); assay type: cell-based; conditions: FIG. 2D
Experimental: RNA Extraction, Reverse Transcription, and Real-Time PCR Analysis: Total RNA was extracted using a RNeasy plus kit (Qiagen, Germantown, Md., USA) and reverse-transcribed using an iScrip reverse transcription kit (Bio-Rad, Philadelphia, Pa., USA). Quantitative real-time PCR (qPCR) analyses were performed using Taqman PCR Master Mix and the ViiA 7 Real-Time PCR System (Applied Biosystems, Foster City, Calif., USA). Gene expressions were calculated following normalization to GAPDH levels using the comparative CT method (ΔΔCT method). The primer sequences for qPCR are following:
The effects of pomalidomide in isogenic sensitive (EJM) and resistant (EJM-PR) and MM1.S cell lines was analyzed. […] To determine the role of PLK1 in pomalidomide response, EJM and EJM-PR cell lines were treated with pomalidomide and analyzed changes in PLK1 levels and downstream signaling. […] The changes in PLK1 transcript levels were further examined in response to pomalidomide treatment in MM1. […] Since changes in PLK1 levels are due to decrease in PLK1 transcription in response to antiproliferative compounds, the effects of Aiolos and Ikaros knockdowns on PLK1 levels using MM1.S cells with inducible expression of Aiolos and Ikaros shRNAs were analyzed. […]

[4] = tested on: CKS1B and E2F2 in EJM and EJM-PR cell lines; assay: CKS1B and E2F2 in response to Pom; assay type: cell-based; conditions: isogenic EJM and EJM-PR; FIG. 12
Experimental: Effects of Pomalidomide (Pom) on CKS1B and E2F2 in Pom sensitive and resistant cell lines. […] Since Aiolos was not degraded in the EJM-PR cell line consistent with the absence of CKS1B and E2F2 downregulation, the binding of Aiolos on the transcriptional start sites (TSS) of CKS1B and E2F2 was analyzed.

[5] = tested on: PLK1, pCDC25C and CDC25C in EJM cells; assay: Immunoblot of PLK1 signaling; assay type: cell-based; conditions: EJM (sensitive) cells only, not EJM-PR
Experimental: (§5) Immunoblotting: Immunoblot analysis was performed using WES kits, (Protein Simple, San Jose, Calif., USA) at least two times each (n≥2), where the best representative is shown.
(§6) The effects of pomalidomide in isogenic sensitive (EJM) and resistant (EJM-PR) and MM1.S cell lines was analyzed. […] To determine the role of PLK1 in pomalidomide response, EJM and EJM-PR cell lines were treated with pomalidomide and analyzed changes in PLK1 levels and downstream signaling. […] The changes in PLK1 transcript levels were further examined in response to pomalidomide treatment in MM1. […] Confocal microscopy was performed to study changes in PLK1 and CDC25C staining in MM1.S cells and a decrease in PLK1 levels and simultaneous decrease in CDC25C staining in response to pomalidomide and Compound 5 treatments was observed. […] Further analysis of the ChIP-seq datasets of Aiolos confirmed binding of Aiolos on TSS of PLK1 with overlapping transcriptional activation H3K27Ac signature extrapolated from publicly available ChIP-seq datasets in GM12878 cell line (Encode project). Since changes in PLK1 levels are due to decrease in PLK1 transcription in response to antiproliferative compounds, the effects of Aiolos and Ikaros knockdowns on PLK1 levels using MM1.S cells with inducible expression of Aiolos and Ikaros shRNAs were analyzed. Both Aiolos and Ikaros knock down lead to a decrease in PLK1 levels (FIG. 2F), indicating transcriptional regulation of PLK1 by substrates of Cereblon.

[6] = tested on: PLK1 signaling in MM1.S cells; assay: Immunoblot of PLK1 signaling; assay type: cell-based; conditions: MMS.1 cells, increasing concentrations; FIG. 2C
Experimental: as §5, §6

[7] = tested on: Ikaros (IKZF1), Aiolos (IKZF3) and ZFP91; assay: Substrate degradation by immunoblotting; assay type: cell-based; conditions: single agent
Experimental: Effect of NEK2 downregulation on Compound 5 and Compound 6-induced substrate degradation. […] The effect of NEK2 knockdown on pomalidomide mediated substrate degradation was also studied. Control and NEK2 shRNA cells were incubated to varying concentrations of pomalidomide. Pomalidomide treatment degraded Ikaros (IKZF1), Aiolos (IKZF3) and ZFP91 in a concentration dependent manner in control shRNA lines. A similar pattern of substrate degradation was maintained in NEK2 knockdown cell lines.

Mc-CAR cell line = assay: Proliferation assay; assay type: cell-based; conditions: 72 h; MC-CAR; Day 3 post treatment; NEK2 inhibitor; read-out: IC50 concentration, proliferation
Experimental: as §1, §2

[8] = 72 h, Day 3 post treatment, NEK2 inhibitor
[9] = isogenic sensitive/resistant comparison
[10] = NCI-H929, 72 h, Day 3 post treatment, NEK2 inhibitor
[11] = NCI-H929, isogenic sensitive/resistant comparison

**Q.** For CC(/C=C\C(F)(F)F)Oc1cc(-c2cc(-c3cc(CN(C)C)cs3)cnc2N)ccc1C(N)=O (racemic) [Rac-CCT 250863, 4-[2-amino-5-[4-[(dimethylamino)methyl]-2-thienyl]-3-pyridinyl]-2-[[(2Z)-4,4,4-trifluoro-1-methyl-2-buten-1-yl]oxy]benzamide], which IC50 (AMO1 cell line; [8]) is on record?
**A.** 7.1 µM

**Q.** What about the IC50 (AMO1 cell line; [9]) of the same compound?
**A.** 7 µM

**Q.** What about the IC50 (K12PE-PR cell line) of the same compound?
**A.** 5.17 µM

**Q.** What about the IC50 (K12PE cell line; [8]) of the same compound?
**A.** 8.7 µM

**Q.** And the IC50 (K12PE cell line; [9])?
**A.** 8.5 µM

**Q.** And the IC50 [1]?
**A.** 3.6 µM

**Q.** And the IC50 (H929-PR cell line)?
**A.** 5.2 µM

**Q.** What about the IC50 (H929 cell line; [10]) of the same compound?
**A.** 8 µM

**Q.** What about the IC50 (H929 cell line; [11]) of the same compound?
**A.** 7.9 µM

**Q.** And the “Selectivity: effect on other kinases, including Cdk1 and Aurora B” value [2]?
**A.** low effect on other kinases

**Q.** What does the source list for Nc1cccc2c1C(=O)N(C1CCC(=O)NC1=O)C2=O (stereo not drawn) [Compound 1, 4-amino-2-(2,6-dioxopiperidine-3-yl)isoindoline-1,3-dione]?
**A.** Synergy with trametinib on proliferation (AMO1 cell line; in combination with trametinib): strong synergy; Synergy of combination with JQ1 on proliferation (K12PE-PR cell line; Pom resistant K12PE-PR, in combination with JQ1): synergistically decreased proliferation; Synergy analysis (Calcusyn) of combination with JQ1 on proliferation (K12PE cell line; K12PE cells, in combination with JQ1): synergistic; Synergy with trametinib on proliferation ([1]; in combination with trametinib): strong synergy; apoptotic cells (Control shRNA cell lines; 72 hours): about 5.04%; apoptotic cells (Control shRNA cell lines; 96 hours): about 9.5%; apoptotic cells (NEK2 shRNA cell lines; 72 hours): 21.1%; apoptotic cells (NEK2 shRNA cell lines; 96 hours): 24.7%; PLK1 transcript levels [3]: decreased PLK1 transcript levels in a dose dependent manner; CKS1B and E2F2 expression [4]: downregulated at the transcriptional level only in Pom sensitive cells; PLK1 levels and downstream effector pCDC25C and CDC25C [5]: dose dependent decrease; PLK1 signaling [6]: dose dependent decrease

**Q.** Which results are given for C#CC(=O)Nc1ccc2c(c1)/C(=C/c1[nH]c(CC)nc1C)C(=O)N2 [JH295, (Z)—N-(3-((2-ethyl-4-methyl-1H-imidazol-5-yl)methylene)-2-oxoindolin-5-yl)propiolamide]?
**A.** IC50 (AMO1 cell line; [8]): 0.48 µM; IC50 (AMO1 cell line; [9]): 0.48 µM; IC50 (K12PE-PR cell line): 10.8 µM; IC50 (K12PE cell line; [8]): 4 µM; IC50 (K12PE cell line; [9]): 4 µM; IC50 [1]: 0.31 µM; substrate degradation (Ikaros, Aiolos, ZFP91) in comparison to DMSO control [7]: No effect; IC50 (H929-PR cell line): 0.27 µM; IC50 (Mc-CAR cell line): 0.56 µM; IC50 (H929 cell line; [10]): 0.37 µM; IC50 (H929 cell line; [11]): 0.37 µM
